Where a name gives a salt, the structure may show the parent alone. Read-outs that look alike come from different tables or passages of the source.
Assays:
[1] = target: T1, recombinant thioredoxin reductase 1 (TrxR1) (Homo sapiens, UniProt Q16881); assay: Inhibition of recombinant TrxR1 (DTNB assay); assay type: biochemical
T1 sequence (Q16881 1-649): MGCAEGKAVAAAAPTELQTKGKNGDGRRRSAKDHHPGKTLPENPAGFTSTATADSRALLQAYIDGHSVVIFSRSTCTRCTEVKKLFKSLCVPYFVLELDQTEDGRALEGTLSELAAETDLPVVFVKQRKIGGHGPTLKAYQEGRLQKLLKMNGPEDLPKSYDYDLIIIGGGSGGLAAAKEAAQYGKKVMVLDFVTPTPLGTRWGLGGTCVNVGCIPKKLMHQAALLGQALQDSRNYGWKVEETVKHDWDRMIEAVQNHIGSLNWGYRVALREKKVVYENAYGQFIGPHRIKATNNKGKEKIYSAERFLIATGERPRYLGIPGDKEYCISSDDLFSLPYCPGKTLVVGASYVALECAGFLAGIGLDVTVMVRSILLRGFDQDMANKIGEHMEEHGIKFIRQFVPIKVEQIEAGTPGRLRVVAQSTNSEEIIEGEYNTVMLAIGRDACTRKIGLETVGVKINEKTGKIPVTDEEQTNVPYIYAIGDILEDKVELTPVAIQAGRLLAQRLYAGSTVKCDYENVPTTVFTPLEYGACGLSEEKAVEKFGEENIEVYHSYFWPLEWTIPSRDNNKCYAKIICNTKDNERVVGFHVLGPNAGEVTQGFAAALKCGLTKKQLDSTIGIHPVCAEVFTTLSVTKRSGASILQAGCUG
Method: (§1) Small molecule inhibition of recombinant thioredoxin reductase 1 (TrxR1) and gluthathione reductase (GR) was examined in 96-well plate format. 15 nM TrxR1 was incubated in the presence of 250 μM NADPH, 0.1 mg/ml BSA, and various concentrations of the compound of Example 1 (1% DMSO final) in 50 mM Tris (pH 7.5) and 2 mM EDTA buffer for 15 minutes. Following the incubation period, 2.5 mM DTNB was added to each well and the change in O.D. at 412 nm was followed. Percent activity was determined using DMSO vehicle and no TrxR1 (blank) controls. 2 nM GR was incubated in the presence of 250 μM NADPH, 0.1 mg/ml BSA, and various concentrations of compounds (1% DMSO final) in 50 mM Tris (pH 7.5) and 2 mM EDTA buffer for 15 minutes. Following the incubation period, 1 mM GSSG was added to each well and the change in O.D. at 340 nm was followed. Percent activity was determined using DMSO vehicle and no GR (blank) controls.

[2] = target: T2, gluthathione reductase (GR) (Homo sapiens, UniProt P00390); assay: Inhibition of recombinant GR (GSSG assay); assay type: biochemical
T2 sequence (P00390 44-522): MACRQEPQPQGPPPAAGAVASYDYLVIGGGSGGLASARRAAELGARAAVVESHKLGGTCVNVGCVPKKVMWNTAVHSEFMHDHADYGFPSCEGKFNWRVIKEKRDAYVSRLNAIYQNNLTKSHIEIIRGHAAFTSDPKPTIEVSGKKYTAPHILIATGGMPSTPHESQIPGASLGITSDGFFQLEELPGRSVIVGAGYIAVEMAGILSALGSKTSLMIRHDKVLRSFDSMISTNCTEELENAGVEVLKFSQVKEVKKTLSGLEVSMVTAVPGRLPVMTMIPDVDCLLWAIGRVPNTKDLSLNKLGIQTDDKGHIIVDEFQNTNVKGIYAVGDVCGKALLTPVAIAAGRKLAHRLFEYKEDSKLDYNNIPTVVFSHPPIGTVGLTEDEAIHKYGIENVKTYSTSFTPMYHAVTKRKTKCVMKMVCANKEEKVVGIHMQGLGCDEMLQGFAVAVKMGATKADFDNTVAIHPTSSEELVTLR
Method: as §1

[3] = Biological Example 4, assays of Biological Example 1, read-out: TrxR Inhibition
[4] = Biological Example 4, assays of Biological Example 1
[5] = Biological Example 1, 15 nM TrxR1, 250 μM NADPH, 15 minutes incubation, read-out: TrxR inhibition
[6] = Biological Example 1, 2 nM GR, 250 μM NADPH, 15 minutes incubation

| SMILES | IC50 [1, 3] [µM] | IC50 [2, 4] [µM] | IC50 [1, 5] [µM] | IC50 [2, 6] [µM] |
| --- | --- | --- | --- | --- |
| Cc1cccc(CN2[C@@H]3C(=O)C=C[C@H]2[C@@H]2C(=O)N(C)C(=O)[C@@H]23)c1 (relative stereo) [Example 53, exo-4-Methyl-11-(3-methylbenzyl)-4,11-diazatricyclo[5.3.1.0^2,6]undec-9-ene-3,5,8-trione Trifluoroacetate] | 3.26 | > 100 |  |  |
| O=C1C=CC2C3C(=O)N(c4ccccc4)C(=O)C3C1N2Cc1cccc(Cl)c1 (stereo not drawn) [Example 42, exo-11-(3-Chlorobenzyl)-4-phenyl-4,11-diazatricyclo[5.3.1.0^2,6]undec-9-ene-3,5,8-trione Trifluoroacetate] | 0.76 | 76.4 |  |  |
| Cc1ccc(CN2[C@@H]3C(=O)C=C[C@H]2[C@@H]2C(=O)N(c4ccccc4)C(=O)[C@@H]23)cc1 (relative stereo) [Example 4, exo-11-Methylbenzyl-4-phenyl-4,11-diazatricyclo[5.3.1.0^2,6]undec-9-ene-3,5,8-trione Trifluoroacetate] | 1.18 | 55.6 |  |  |
| O=C1C=C[C@H]2[C@@H]3C(=O)N(c4ccccc4)C(=O)[C@@H]3[C@@H]1N2Cc1ccccc1Cl (relative stereo) [Example 24, exo-11-(2-Chlorobenzyl)-4-phenyl-4,11-diazatricyclo[5.3.1.0^2,6]undec-9-ene-3,5,8-trione Trifluoroacetate] | 1.3 | > 100 |  |  |
| O=C1C=CC2C3C(=O)N(c4ccccc4)C(=O)C3C1N2Cc1cccc(C(F)(F)F)c1F (stereo not drawn) [Example 44, exo-11-(2-Fluoro-3-(trifluoromethyl)benzyl)-4-phenyl-4,11-diazatricyclo-[5.3.1.0^2,6]undec-9-ene-3,5,8-trione Trifluoroacetate] | 2.33 |  |  |  |
| Cc1ccc(F)c(CN2C3C=CC(=O)C2C2C(=O)N(c4ccccc4)C(=O)C23)c1F (stereo not drawn) [Example 39, exo-11-(2,6-Difluoro-3-methylbenzyl)-4-phenyl-4,11-diazatricyclo[5.3.1.0^2,6]-undec-9-ene-3,5,8-trione Trifluoroacetate] | 1.29 | > 100 |  |  |
| CCN1C(=O)C2C(C1=O)[C@@H]1C=CC(=O)[C@H]2N1Cc1cccc(C)c1 (mixture of isomers) [Example 48, endo-4-Ethyl-11-(3-methylbenzyl)-4,11-diazatricyclo[5.3.1.0^2,6]undec-9-ene-3,5,8-trione Trifluoroacetate] | 3.63 | > 100 |  |  |
| Cc1cccc(CN2[C@@H]3C(=O)C=C[C@H]2C2C(=O)N(C)C(=O)C23)c1 (stereo partly shown) [Example 52] | 1.81 | > 100 |  |  |
| Cc1cccc(CN2[C@@H]3C(=O)C=C[C@H]2[C@@H]2C(=O)N(c4cccc(Br)c4)C(=O)[C@@H]23)c1 (relative stereo) [Example 62, exo-4-(3-Bromophenyl)-11-(3-methylbenzyl)-4,11-diazatricyclo[5.3.1.0^2,6]-undec-9-ene-3,5,8-trione Trifluoroacetate] | 1.23 | > 100 |  |  |
| O=C1C=C[C@H]2[C@@H]3C(=O)N(c4ccccc4)C(=O)[C@@H]3[C@@H]1N2Cc1cccc(F)c1 (relative stereo) [Example 29, exo-11-(3-Fluorobenzyl)-4-phenyl-4,11-diazatricyclo[5.3.1.0^2,6]undec-9-ene-3,5,8-trione Trifluoroacetate] | 1.07 | > 100 |  |  |
| CC1=CC(=O)[C@@H]2[C@H]3C(=O)N(C4CCCCC4)C(=O)[C@H]3[C@H]1N2Cc1ccccc1 (relative stereo) [Example 14, exo-11-Benzyl-4-cyclohexyl-10-methyl-4,11-diazatricyclo[5.3.1.0^2,6]undec-9-ene-3,5,8-trione Trifluoroacetate] | 33.3 | > 100 |  |  |
| O=C1C=CC2C3C(=O)N(c4ccccc4)C(=O)C3C1N2Cc1cc(Cl)ccc1F (stereo not drawn) [Example 40, exo-11-(5-Chloro-2-fluorobenzyl)-4-phenyl-4,11-diazatricyclo[5.3.1.0^2,6]-undec-9-ene-3,5,8-trione Trifluoroacetate] | 0.77 | 31.6 |  |  |
| NS(=O)(=O)c1cccc(CN2[C@@H]3C(=O)C=C[C@H]2[C@@H]2C(=O)N(c4ccccc4)C(=O)[C@@H]23)c1 (relative stereo) [Example 67, exo-3-((3,5,10-Trioxo-4-phenyl-4,11-diazatricyclo[5.3.1.0^2,6]undec-8-en-11-yl)methyl)benzenesulfonamide Trifluoroacetate] | 1.99 | > 100 | 1.31 | > 100 |
| Cc1cc(C)cc(CN2C3C=CC(=O)C2C2C(=O)N(c4ccccc4)C(=O)C23)c1 (stereo not drawn) [Example 33, exo-11-(3,5-Dimethylbenzyl)-4-phenyl-4,11-diazatricyclo[5.3.1.0^2,6]undec-9-ene-3,5,8-trione Trifluoroacetate] | 1.33 | > 100 |  |  |
| CS(=O)(=O)c1ccc(CN2[C@@H]3C(=O)C=C[C@H]2[C@@H]2C(=O)N(c4ccccc4)C(=O)[C@@H]23)cc1 (relative stereo) [Example 23, exo-11-(4-(Methylsulfonyl)benzyl)-4-phenyl-4,11-diazatricyclo[5.3.1.0^2,6]-undec-9-ene-3,5,8-trione Trifluoroacetate] | 3.83 | > 100 |  |  |
| Cc1cccc(CN2[C@@H]3C(=O)C=C[C@H]2[C@@H]2C(=O)N(c4ccccc4)C(=O)[C@@H]23)c1 (relative stereo) [Example 21, exo-11-(3-Methylbenzyl)-4-phenyl-4,11-diazatricyclo[5.3.1.0^2,6]undec-9-ene-3,5,8-trione Trifluoroacetate] | 1.15 | > 100 | 7.39 | > 100 |
| CN1[C@@H]2C(=O)C=C[C@H]1[C@@H]1C(=O)N(c3ccccc3)C(=O)[C@@H]12 (relative stereo) [Example 3, exo-11-Methyl-4-phenyl-4,11-diazatricyclo[5.3.1.0^2,6]undec-9-ene-3,5,8-trione Trifluoroacetate] | 1.12 | 23 | 3.09 | 44 |
| CCN1C(=O)[C@@H]2[C@H](C1=O)[C@H]1C(=O)C=C[C@@H]2N1Cc1ccccc1 (relative stereo) [Example 47, exo-11-Benzyl-4-ethyl-4,11-diazatricyclo[5.3.1.0^2,6]undec-9-ene-3,5,8-trione Trifluoroacetate] | 4.15 | > 100 |  |  |
| CC(C)(C)N1C(=O)C2C(C1=O)[C@@H]1C=CC(=O)[C@H]2N1Cc1ccccc1 (mixture of isomers) [Example 16, endo 11-Benzyl-4-(tert-butyl)-4,11-diazatricyclo[5.3.1.0^2,6]undec-9-ene-3,5,8-trione Trifluoroacetate] | 5.56 | > 100 |  |  |
| O=C1C=CC2C3C(=O)N(c4ccccc4)C(=O)C3C1N2Cc1ccccc1Br (stereo not shown) [Example 20, 11-(2-Bromobenzyl)-4-phenyl-4,11-diazatricyclo[5.3.1.0^2,6]undec-9-ene-3,5,8-trione Trifluoroacetate] | 0.94 | > 100 | 3.7 | > 100 |
| Cc1ccccc1CN1[C@@H]2C(=O)C=C[C@H]1[C@@H]1C(=O)N(c3ccccc3)C(=O)[C@@H]12 (relative stereo) [Example 19, exo-11-(2-Methylbenzyl)-4-phenyl-4,11-diazatricyclo[5.3.1.0^2,6]undec-9-ene-3,5,8-trione Trifluoroacetate] | 1.5 | > 100 |  |  |
